Test results as given in patent publication US12264134B2 (Merck Sharp & Dohme LLC, priority 2018, dated 2025).
Read-outs that look alike come from different tables or passages of the source.

Biological target: IDO1 (Homo sapiens, UniProt P14902)
Assay: IDO1 Cellular Assay in HeLa Cells Stimulated with IFNγ
Format: cell-based
Experimental: IDO1 Cellular Assay in HeLa Cells Stimulated with IFNγ
HeLa cells were cultured in complete HeLa culture medium (90% EMEM, 10% heat-inactivated fetal bovine serum) and expanded to about 1×10^9 cells. The cells were then collected and frozen down at 1×10^7 cells/vial in 1 mL frozen medium (90% complete HeLa culture medium, 10% DMSO).
Compounds to be tested were serially diluted in ten 3-fold steps in DMSO starting from 10 mM DMSO stocks in Echo low volume plate(s). Compound dilutions or DMSO alone were then dispensed from the dilution plate(s) into Greiner black 384-well assay plate(s) (catalog #781086, 50 nL/well) using an Echo 550 acoustic liquid handler (Labcyte).
Frozen HeLa cells were thawed and transferred into HeLa assay medium (99% complete HeLa culture medium, 1% Pen/Strep) with 20 mL medium/vial of cells. The cells were spun down at 250 g in a table top centrifuge for 5 min and suspended in same volume of HeLa assay medium. The cells were then counted and adjusted to a density of 2×10^5 cells/mL in HeLa assay medium. Sterile L-tryptophan were added to the cells with final concentration of 300 uM L-tryptophan. A small aliquot (2 mL/plate) of HeLa cells were set aside and were not treated with IFNγ, to serve as the Max-E control.
HeLa cells with and without IFNγ were dispensed to the respective wells of 384-well assay plates containing the compounds. The plates were incubated for about 48 hours at a 37° C., 5% CO2 incubator. Afterwards, 12 μL of 0.5 M methyl isonipecotate in dimethyl sulfoxide were added into each well and the plates were sealed and incubated at 37° C. without CO2 overnight. The plates were centrifuged for 1 min at 200×g. The resulting fluorescence was measured in a Spectramax plate reader (Molecular Devices) with a 400 nm excitation filter and a 510 nm emission filter.
The fluorescence intensity of each well was corrected for the background observed in wells with non-IFNγ-treated cells and was expressed as a fraction of the intensity observed in wells of IFNγ-treated cells and DMSO only. Potencies were calculated by linear least squares fit to the four parameter logistic IC50 equation.

[1] = read-out: HeLa Cell Potency, IC50

IDO1, sequence (P14902 whole entry): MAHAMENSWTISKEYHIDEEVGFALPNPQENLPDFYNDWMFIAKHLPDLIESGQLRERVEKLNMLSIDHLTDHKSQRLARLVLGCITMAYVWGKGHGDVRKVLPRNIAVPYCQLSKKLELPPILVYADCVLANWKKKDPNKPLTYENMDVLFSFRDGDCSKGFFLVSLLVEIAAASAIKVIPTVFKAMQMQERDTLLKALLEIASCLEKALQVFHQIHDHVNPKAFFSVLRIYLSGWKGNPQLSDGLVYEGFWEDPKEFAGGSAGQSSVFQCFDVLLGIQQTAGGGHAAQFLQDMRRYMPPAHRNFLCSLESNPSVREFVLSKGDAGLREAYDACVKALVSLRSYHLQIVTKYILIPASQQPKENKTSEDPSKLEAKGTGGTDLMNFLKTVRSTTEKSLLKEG

Row | SMILES | IC50 [1] [nM] | IC50 (HeLa Cell Potency, IC50 (nM)) [nM]
1 | C[C@@H]1CN(C(=O)c2nn(CC(=O)N3CCN(c4ccc(Cl)cc4)CC3)c3c2CCC3)C[C@H](C)O1 [Example 42, 1-[4-(4-chlorophenyl)piperazin-1-yl]-2-{3-[(2R,6S)-2,6-dimethylmorpholine-4-carbonyl]-5,6-dihydrocyclopenta[c]pyrazol-1(4H)-yl}ethan-1-one] | 147 | 
2 | Cc1ccccc1N1CCN(C(=O)Cn2nc(C(=O)N3C[C@@H](C)O[C@@H](C)C3)c3c2CCC3)CC1 [Example 487, 2-(3-((2S,6R)-2,6-dimethylmorpholine-4-carbonyl)-5,6-dihydro-cyclopenta[c]pyrazol-1(4H)-yl)-1-(4-(o-tolyl)piperazin-1-yl)ethanone,] | 51.4 | 
3 | Cc1cccc(N2CCN(C(=O)Cn3nc(C(=O)N4CCC(O)C5CCCCC54)c4c3CCC4)CC2)c1C (stereo not shown) [Example 112, 1-[4-(2,3-dimethylphenyl)piperazin-1-yl]-2-[3-(4-hydroxyoctahydroquinoline-1(2H)-carbonyl)-5,6-dihydrocyclopenta[c]pyrazol-1(4H)-yl]ethan-1-one] | 3.6 | 
4 | Cc1cccc(N2CCN(C(=O)Cn3nc(C(=O)N4CCC(C)(O)CC4C)c4c3C[C@H]3C[C@@H]43)CC2)c1C (stereo partly drawn) [Example 245, 1-[4-(2,3-dimethylphenyl)piperazin-1-yl]-2-[(3bR,4aR)-3-(4-hydroxy-2,4-dimethylpiperidine-1-carbonyl)-3b,4,4a,5-tetrahydro-1H-cyclopropa[3,4]cyclopenta[1,2-c]pyrazol-1-yl]ethan-1-one] | 3.01 | 
5 | Cc1cccc(N2CCN(C(=O)Cn3nc(C(=O)N4CCC(NC(=O)OC(C)(C)C)CC4)c4c3CCCC4)CC2)c1C [Example 469, tert-butyl (1-(1-(2-(4-(2,3-dimethylphenyl)piperazin-1-yl)-2-oxoethyl)-4,5,6,7-tetrahydro-1H-indazole-3-carbonyl)piperidin-4-yl) carbamate] | 2.48 | 
6 | Cc1cccc(N2CCN(C(=O)Cn3nc(C(=O)N4CC[C@@H](O)[C@@H](F)C4)c4c3C(O)CC4)CC2)c1C (single isomer, unassigned) [Example 422] | 2950 | 
7 | COc1cccc(N2CCN(C(=O)Cn3nc(C(=O)N4C[C@@H](C)O[C@@H](C)C4)c4c3CCC4)CC2)c1 [Example 29, 2-{3-[(2R,6S)-2,6-dimethylmorpholine-4-carbonyl]-5,6-dihydrocyclopenta[c]pyrazol-1(4H)-yl}-1-[4-(3-methoxyphenyl)piperazin-1-yl]ethan-1-one] | 316 | 
8 | Cc1cccc(N2CCN(C(=O)Cn3nc(C(=O)N4C[C@H]5CC[C@H](O)[C@H]5C4)c4c3CCC4)CC2)c1C [Example 100, 1-[4-(2,3-dimethylphenyl)piperazin-1-yl]-2-{3-[(3aR,4S,6aS)-4-hydroxyhexahydrocyclopenta[c]pyrrole-2(1H)-carbonyl]-5,6-dihydrocyclopenta[c]pyrazol-1(4H)-yl}ethan-1-one] | 10.7 | 
9 | Cc1cccc(N2CCN(C(=O)Cn3nc(C(=O)N4CC[C@@H](F)[C@@H](O)C4)c4c3CCC4)CC2)c1C [Example 204, 1-[4-(2,3-dimethylphenyl)piperazin-1-yl]-2-[3-[(3S,4R)-4-fluoro-3-hydroxy-piperidine-1-carbonyl]-5,6-dihydro-4H-cyclopenta[c]pyrazol-1-yl]ethanone] | 13.1 | 
10 | Cc1cccc(N2CCN(C(=O)Cn3nc(C(=O)N4CCC(O)(CN5CCCCC5)CC4)c4c3C[C@H]3C[C@@H]43)CC2)c1C [Example 259, 1-[4-(2,3-dimethylphenyl)piperazin-1-yl]-2-[(3bR,4aR)-3-{4-hydroxy-4-[(piperidin-1-yl)methyl]piperidine-1-carbonyl}-3b,4,4a,5-tetrahydro-1H-cyclopropa[3,4]cyclopenta[1,2-c]pyrazol-1-yl]ethan-1-one] | 9.62 | 
11 | Cc1cccc(N2CCN(C(=O)Cn3nc(C(=O)N4CCC5(CCCC(=O)N5)CC4)c4c3CCC4)CC2)c1C [Example 183, 9-(1-{2-[4-(2,3-dimethylphenyl)piperazin-1-yl]-2-oxoethyl}-1,4,5,6-tetrahydrocyclopenta[c]pyrazole-3-carbonyl)-1,9-diazaspiro[5.5]undecan-2-one] | 3.22 | 
12 | Cc1cccc(N2CCN(C(=O)Cn3nc(C(=O)N4CCC(=O)CC4)c4c3C[C@H]3C[C@@H]43)CC2)c1C [Example 265, 1-[(3bR,4aR)-1-{2-[4-(2,3-dimethylphenyl)piperazin-1-yl]-2-oxoethyl}-3b,4,4a,5-tetrahydro-1H-cyclopropa[3,4]cyclopenta[1,2-c]pyrazole-3-carbonyl]piperidin-4-one] |  | < 0.51
13 | Cc1cccc(N2CCN(C(=O)Cn3nc(C(=O)N4CC[C@@H](N5CCC(O)CC5)[C@@H](F)C4)c4c3CC(F)(F)CC4)CC2)c1C (stereo in doubt) [Example 24, 2-[6,6-difluoro-3-[rac-(3S,4R)-3-fluoro-4-(4-hydroxy-1-piperidyl)piperidine-1-carbonyl]-5,7-dihydro-4H-indazol-1-yl]-1-[4-(2,3-dimethylphenyl)piperazin-1-yl]ethanone] | 195 | 
14 | Cc1c(N2CCN(C(=O)Cn3nc(C(=O)N4CCC(OCCO)CC4)c4c3C[C@H]3C[C@@H]43)CC2)cccc1C(F)(F)F [Example 341, 2-((3bR,4aR)-3-(4-(2-hydroxyethoxy)piperidine-1-carbonyl)-3b,4,4a,5-tetrahydro-1H-cyclopropa[3,4]cyclopenta[1,2-c]pyrazol-1-yl)-1-(4-(2-methyl-3-(trifluoromethyl)phenyl)piperazin-1-yl)ethanone] | 1.64 | 
15 | Cc1cccc(N2CCN(C(=O)Cn3nc(C(=O)N4CCN(C(=O)CO)CC4)c4c3C[C@H]3C[C@@H]43)C(C(F)F)C2)c1C (stereo partly shown) [Example 388] | 92.6 | 
16 | C[C@@H]1CN(C(=O)c2nn(CC(=O)N3CCN(c4ccc(F)cc4)CC3)c3c2CCC3)C[C@H](C)O1 [Example 28, 2-{3-[(2R,6S)-2,6-dimethylmorpholine-4-carbonyl]-5,6-dihydrocyclopenta[c]pyrazol-1(4H)-yl}-1-[4-(4-fluorophenyl)piperazin-1-yl]ethan-1-one] | 337 | 
17 | O=C(Cn1nc(C(=O)N2CC[C@H](O)[C@@H](F)C2)c2c1CCC2)N1CCN(C2CCCc3ccccc32)CC1 (stereo partly drawn) [Example 433, 2-(3-((3S,4S)-3-fluoro-4-hydroxypiperidine-1-carbonyl)-5,6-dihydrocyclopenta[c]pyrazol-1(4H)-yl)-1-(4-(1,2,3,4-tetrahydronaphthalen-1-yl)piperazin-1-yl)ethanone] | 494 | 
18 | Cc1cccc(N2CCN(C(=O)Cn3nc(C(=O)N4CC5CCC4CC5O)c4c3CCC4)CC2)c1C (stereo not shown) [Example 152, 1-[4-(2,3-dimethylphenyl)piperazin-1-yl]-2-[3-(5-hydroxy-2-azabicyclo[2.2.2]octane-2-carbonyl)-5,6-dihydrocyclopenta[c]pyrazol-1(4H)-yl]ethan-1-one] | 34.2 | 
19 | Cc1cccc(N2CCN(C(=O)Cn3nc(C(=O)N4CCCC(N5CCCC5=O)C4)c4c3C[C@H]3C[C@@H]43)CC2)c1C (stereo partly drawn) [Example 225, 1-{1-[(3bR,4aR)-1-{2-[4-(2,3-dimethylphenyl)piperazin-1-yl]-2-oxoethyl}-3b,4,4a,5-tetrahydro-1H-cyclopropa[3,4]cyclopenta[1,2-c]pyrazole-3-carbonyl]piperidin-3-yl}pyrrolidine-2-one] | 3.93 | 
